From patent US6248305A, “Boron heterocycle steroid mimics and associated pharmaceutical compositions and methods of use” (SRI International, priority 2000, dated 2001)

Experiments:
estrogen receptor = details: cited from earlier work
MCF-7 cells = test: Antiproliferative assay, MCF-7 cells, alamar Blue; type: cell-based
Procedure: MCF-7 cells were obtained from the American Type Culture Collection (ATCC, Rockville, Md.). Exponentially growing cells were plated (96-well plates) in MEM (minimal essential medium) containing NaHCO3, CCD (charcoal-coated dextran)-stripped 10% FCS (fetal calf serum), and glycine. Cultures were incubated at 37° C. for 1 day, then treated with target by replacing the medium with 100 μL MEM containing supplements and target (3 wells at each of 5 concentrations). The relative effect of each concentration was compared to that of β-estradiol (positive control) by the alamar Blue™ assay (Biosource International),in which the dye is reduced by cellular mitochondrial enzymes to a soluble fluorophore with an intensity directly proportional to cell number. After cultures were incubated with target, alamar Blue™ diluted to 20% in MEM was added (100 μL/well) and cells were incubated for about 4 h, until a color change indicated sufficient amounts of reduced dye for quantitation. Relative cell number was evaluated directly from the plates by fluorimetry (560 nm excitation, 590 nm detection) on a Millipore 2300 CytoFluor. The concentration at which 50% effectiveness is seen (EC50) was calculated from statistically significant, reproducible effects. Statistical analysis was performed using JMP software (SAS Institute).

[1] = concentration 10^-5 (unit not given)
[2] = concentration 10^-6 (unit not given)
[3] = concentration 10^-7 (unit not given)
[4] = concentration 10^-8 (unit not given)
[5] = concentration 10^-9 (unit not given)

Compound | affinity for the estrogen receptor (estrogen receptor) | % Inhibition (MCF-7 cells; [1]) | % Inhibition (MCF-7 cells; [2]) | % Inhibition (MCF-7 cells; [3]) | % Inhibition (MCF-7 cells; [4]) | % Inhibition (MCF-7 cells; [5])
Estrone and Estradiol-17β, 3-carboranylmethyl Ethers | 0.5 |  |  |  |  | 
O=C1OB2c3ccc(O)cc3C=NN2c2ccccc21 [Compound 4, 1,2-dihydro-1,6-dihydroxy-2-(2-carboxyphenyl)-2,3,1-benzodiazaborine lactone] |  | 13% | 4% | 2% | 6% | 0%
CC/C(=C(\c1ccccc1)c1ccc(OCCN(C)C)cc1)c1ccccc1 [tamoxifen, reference compound] |  | 95% | 54% | 29% | 5% | 0%
OB1c2ccc(O)cc2C=NN1c1ccccn1 [Compound 11, 1,2-dihydro-1,6-dihydroxy-2-(6-pyridinyl)-2,3,1-benzodiazaborine] |  | 55% | 10% | 8% | 8% | 5%
COc1cccc(N2N=Cc3cc(O)ccc3B2O)n1 [Compound 15, 1,2-dihydro-1,6-dihydroxy-2-(2-methoxy-6-pyridinyl)-2,3,1-benzodiazaborine] |  | 62% | 3% | 0% | 0% | 0%
